Results as given in PubChem BioAssay (NCI).
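Compound exposure: 48 hours, 5 concentrations, 96-well plates. GI50 is the concentration that inhibits growth by half. TGI: total growth inhibition.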

What was measured:
Experiment in all cases: NCI tumour cell line growth inhibition, 48 h
NCI/ADR-RES ovarian = tested on: NCI/ADR-RES ovarian
SW-620 colon = tested on: SW-620 colon
UO-31 renal = tested on: UO-31 renal
OVCAR-8 ovarian = tested on: OVCAR-8 ovarian
HCT-15 colon = tested on: HCT-15 colon
T-47D breast = tested on: T-47D breast
UACC-62 melanoma = tested on: UACC-62 melanoma
EKVX NSCLC = tested on: EKVX NSCLC
NCI-H522 lung = tested on: NCI-H522 lung
IGROV1 ovarian = tested on: IGROV1 ovarian
SF-539 CNS = tested on: SF-539 CNS
K-562 leukemia = tested on: K-562 leukemia
SN12C renal = tested on: SN12C renal
MDA-MB-435 = tested on: MDA-MB-435
A498 renal = tested on: A498 renal
BT-549 breast = tested on: BT-549 breast
MOLT-4 leukemia = tested on: MOLT-4 leukemia
U251 CNS = tested on: U251 CNS
HCT-116 colon = tested on: HCT-116 colon
LOX IMVI melanoma = tested on: LOX IMVI melanoma
MDA-MB-231 breast = tested on: MDA-MB-231 breast
CAKI-1 renal = tested on: CAKI-1 renal
SK-OV-3 ovarian = tested on: SK-OV-3 ovarian
MCF7 breast = tested on: MCF7 breast
HCC-2998 colon = tested on: HCC-2998 colon
786-0 renal = tested on: 786-0 renal
OVCAR-3 ovarian = tested on: OVCAR-3 ovarian
NCI-H23 lung = tested on: NCI-H23 lung
TK-10 renal = tested on: TK-10 renal
SK-MEL-5 melanoma = tested on: SK-MEL-5 melanoma
HOP-62 NSCLC = tested on: HOP-62 NSCLC
HT29 colon = tested on: HT29 colon
PC-3 prostate = tested on: PC-3 prostate
M14 melanoma = tested on: M14 melanoma
SF-268 CNS = tested on: SF-268 CNS
COLO 205 colon = tested on: COLO 205 colon
SK-MEL-28 melanoma = tested on: SK-MEL-28 melanoma
RXF 393 renal = tested on: RXF 393 renal
SNB-19 CNS = tested on: SNB-19 CNS
A549 NSCLC = tested on: A549 NSCLC
RPMI-8226 leukemia = tested on: RPMI-8226 leukemia
NCI-H226 lung = tested on: NCI-H226 lung
KM12 colon = tested on: KM12 colon
ACHN renal = tested on: ACHN renal
UACC-257 melanoma = tested on: UACC-257 melanoma
SF-295 CNS = tested on: SF-295 CNS
DU-145 prostate = tested on: DU-145 prostate
HOP-92 NSCLC = tested on: HOP-92 NSCLC
OVCAR-4 ovarian = tested on: OVCAR-4 ovarian
HS 578T breast = tested on: HS 578T breast
OVCAR-5 ovarian = tested on: OVCAR-5 ovarian
SK-MEL-2 melanoma = tested on: SK-MEL-2 melanoma
MALME-3M melanoma = tested on: MALME-3M melanoma
SR leukemia = tested on: SR leukemia
NCI-H460 lung = tested on: NCI-H460 lung
CCRF-CEM leukemia = tested on: CCRF-CEM leukemia

In the case of `COc1ccc(-c2nc3sccn3c2/C(N)=N/C(=N)N)cc1OC`, the GI50 (NCI/ADR-RES ovarian) is reported as > 100 µM, the TGI (NCI/ADR-RES ovarian) is reported as > 100 µM and the GI50 (SW-620 colon) is reported as 28.4 µM. The TGI (SW-620 colon) was 72.1 µM, the GI50 (UO-31 renal) was 7.37 µM and the TGI (UO-31 renal) was 40.2 µM. For the same molecule, the GI50 (OVCAR-8 ovarian) was 43.8 µM, the TGI (OVCAR-8 ovarian) was > 100 µM and the GI50 (HCT-15 colon) was > 100 µM. The TGI (HCT-15 colon) was > 100 µM, the GI50 (T-47D breast) was 29.1 µM and the TGI (T-47D breast) was > 100 µM. The GI50 (UACC-62 melanoma) was 66 µM, the TGI (UACC-62 melanoma) was > 100 µM and the GI50 (EKVX NSCLC) was 66.4 µM. For the same molecule, the TGI (EKVX NSCLC) was > 100 µM, the GI50 (NCI-H522 lung) was 7.85 µM and the TGI (NCI-H522 lung) was > 100 µM. It also gave a GI50 (IGROV1 ovarian) of 3.26 µM, a TGI (IGROV1 ovarian) of 7.11 µM and a GI50 (SF-539 CNS) of 25.7 µM. The TGI (SF-539 CNS) was 66 µM, the GI50 (K-562 leukemia) was 27.6 µM and the TGI (K-562 leukemia) was > 100 µM. The GI50 (SN12C renal) was 27.2 µM, the TGI (SN12C renal) was > 100 µM and the GI50 (MDA-MB-435) was 33.1 µM. The TGI (MDA-MB-435) was > 100 µM, the GI50 (A498 renal) was > 100 µM and the TGI (A498 renal) was > 100 µM. It also gave a GI50 (BT-549 breast) of 22.8 µM, a TGI (BT-549 breast) of 43.3 µM and a GI50 (MOLT-4 leukemia) of 27.6 µM. The TGI (MOLT-4 leukemia) was > 100 µM, the GI50 (U251 CNS) was 34.1 µM and the TGI (U251 CNS) was > 100 µM. The GI50 (HCT-116 colon) was 19.1 µM, the TGI (HCT-116 colon) was 45.2 µM and the GI50 (LOX IMVI melanoma) was 37.5 µM. For the same molecule, the TGI (LOX IMVI melanoma) was > 100 µM, the GI50 (MDA-MB-231 breast) was 17.8 µM and the TGI (MDA-MB-231 breast) was 39.3 µM. For the same molecule, the GI50 (CAKI-1 renal) was 87.7 µM, the TGI (CAKI-1 renal) was > 100 µM and the GI50 (SK-OV-3 ovarian) was > 100 µM. For the same molecule, the TGI (SK-OV-3 ovarian) was > 100 µM, the GI50 (MCF7 breast) was 56.9 µM and the TGI (MCF7 breast) was > 100 µM. The GI50 (HCC-2998 colon) was 43.1 µM, the TGI (HCC-2998 colon) was > 100 µM and the GI50 (786-0 renal) was 32.9 µM. The TGI (786-0 renal) was > 100 µM, the GI50 (OVCAR-3 ovarian) was 31.8 µM and the TGI (OVCAR-3 ovarian) was > 100 µM. The GI50 (NCI-H23 lung) was > 100 µM, the TGI (NCI-H23 lung) was > 100 µM and the GI50 (TK-10 renal) was 28.6 µM. For the same molecule, the TGI (TK-10 renal) was > 100 µM, the GI50 (SK-MEL-5 melanoma) was 21.3 µM and the TGI (SK-MEL-5 melanoma) was 44.5 µM. It also gave a GI50 (HOP-62 NSCLC) of 24.6 µM, a TGI (HOP-62 NSCLC) of 58.3 µM and a GI50 (HT29 colon) of 58.4 µM. The TGI (HT29 colon) was > 100 µM, the GI50 (PC-3 prostate) was 34.3 µM and the TGI (PC-3 prostate) was > 100 µM. It also gave a GI50 (M14 melanoma) of 29.4 µM, a TGI (M14 melanoma) of 79.5 µM and a GI50 (SF-268 CNS) of 50.3 µM. The TGI (SF-268 CNS) was > 100 µM, the GI50 (COLO 205 colon) was 56.6 µM and the TGI (COLO 205 colon) was > 100 µM. For the same molecule, the GI50 (SK-MEL-28 melanoma) was 32.5 µM, the TGI (SK-MEL-28 melanoma) was > 100 µM and the GI50 (RXF 393 renal) was > 100 µM. The TGI (RXF 393 renal) was > 100 µM, the GI50 (SNB-19 CNS) was 35.3 µM and the TGI (SNB-19 CNS) was > 100 µM. For the same molecule, the GI50 (A549 NSCLC) was > 100 µM, the TGI (A549 NSCLC) was > 100 µM and the GI50 (RPMI-8226 leukemia) was 58.5 µM. The TGI (RPMI-8226 leukemia) was > 100 µM, the GI50 (NCI-H226 lung) was 45.1 µM and the TGI (NCI-H226 lung) was > 100 µM. For the same molecule, the GI50 (KM12 colon) was 24.7 µM, the TGI (KM12 colon) was 81.8 µM and the GI50 (ACHN renal) was > 100 µM. The TGI (ACHN renal) was > 100 µM, the GI50 (UACC-257 melanoma) was 40.7 µM and the TGI (UACC-257 melanoma) was > 100 µM. The GI50 (SF-295 CNS) was 30.5 µM, the TGI (SF-295 CNS) was 87.1 µM and the GI50 (DU-145 prostate) was 52.4 µM. The TGI (DU-145 prostate) was > 100 µM, the GI50 (HOP-92 NSCLC) was 56.5 µM and the TGI (HOP-92 NSCLC) was > 100 µM. The GI50 (OVCAR-4 ovarian) was > 100 µM, the TGI (OVCAR-4 ovarian) was > 100 µM and the GI50 (HS 578T breast) was 35.5 µM. For the same molecule, the TGI (HS 578T breast) was > 100 µM, the GI50 (OVCAR-5 ovarian) was 78 µM and the TGI (OVCAR-5 ovarian) was > 100 µM. The GI50 (SK-MEL-2 melanoma) was 29.4 µM, the TGI (SK-MEL-2 melanoma) was > 100 µM and the GI50 (MALME-3M melanoma) was 13.3 µM. It also gave a TGI (MALME-3M melanoma) of 32.9 µM, a GI50 (SR leukemia) of 30.5 µM and a TGI (SR leukemia) of 77.3 µM. For the same molecule, the GI50 (NCI-H460 lung) was 46.7 µM, the TGI (NCI-H460 lung) was > 100 µM and the GI50 (CCRF-CEM leukemia) was 38.4 µM. For the same molecule, the TGI (CCRF-CEM leukemia) was > 100 µM.
